Assay results taken from publication PMC5444695, “CM363, a novel naphthoquinone derivative which acts as multikinase modulator and overcomes imatinib resistance in chronic myelogenous leukemia” (Oncotarget, 2016).

Experiments:
Raw cells = assay: MTT cell viability assay, Raw cells; format: cell-based; settings: Mus musculus, 48 h, read-out: IC50 (μM) Mean ± SD
Experimental: (§1) All cell lines were purchased from the American Type Culture Collection (ATCC). The cell lines were growth at 37°C under 5% CO2 under humidified atmosphere. The cell lines K562 (derived from patients during the blast crisis phase of CML and IM sensitive), K562-R (IM resistance human CML), KmycBT15I (KBTI; IM resistant human CML, expressing the Bcr-Abl […] mutant), HEL (human erythroleukemia), HL60 (human acute myeloid leukemia), MOLM-13 (human acute myeloid leukemia), MV4.11 (human acute monocytic leukemia), HCT-15 (human colorectal adenocarcinoma), PC3 (human prostate cancer), MCF7 (human breast cancer), NCTC3749 (mouse lymphoma) as well as the MRC.5 cells (non-malignant human lung fibroblasts) were maintained in RPMI-1640 medium. The cell lines L1210 (mouse lymphocytic leukemia cells), Raw (mouse macrophage), HeLa (human epithelial cervix cancer), U-2 OS (human osteosarcoma), MG63 (human osteosarcoma) and T47D (human breast cancer adenocarcinoma) were maintained in DMEM. HEK293 cells stably expressing the GH receptor (HEKGHR) were maintained in DMEM-F12 medium. […]
(§2) Cells were seeded in 96-well plates (BD Falcon, France) at exponential growth density (5000–20000 cells/well) and treated with vehicle (0.05% DMSO) or compound (0.01 to 10 μM) for 48–72 h. […] Optical density was measured at 595 nm with the iMark Microplate Reader (BioRad, CA, USA).

NCTC cells = assay: MTT cell viability assay, NCTC cells; format: cell-based; settings: Mus musculus, 48 h, read-out: IC50 (μM) Mean ± SD
Experimental: as §1, §2

HEL cells = assay: MTT cell viability assay, HEL cells; format: cell-based; settings: Homo sapiens, 48 h, read-out: IC50 (μM) Mean ± SD
Experimental: as §1, §2

HL60 cells = assay: MTT cell viability assay, HL60 cells; format: cell-based; settings: Homo sapiens, HL-60, HL60, 48 h, read-out: IC50 (μM) Mean ± SD
Experimental: as §1, §2

PC3 cells = assay: MTT cell viability assay, PC3 cells; format: cell-based; settings: Homo sapiens, PC-3, PC3, 48 h, read-out: IC50 (μM) Mean ± SD
Experimental: as §1, §2

MCF7 cells = assay: MTT cell viability assay, MCF7 cells; format: cell-based; settings: Homo sapiens, MCF7, 48 h, read-out: IC50 (μM) Mean ± SD
Experimental: as §1, §2

L1210 cells = assay: MTT cell viability assay, L1210 cells; format: cell-based; settings: Mus musculus, L1210, 48 h, read-out: IC50 (μM) Mean ± SD
Experimental: as §1, §2

PMBC = assay: MTT cell viability assay, PMBC; format: cell-based; settings: Homo sapiens, 48 h, read-out: IC50 (μM) Mean ± SD
Experimental: as §1, §2

K562-R cells = assay: MTT cell viability assay, IM-resistant K562-R cells; format: cell-based, human; settings: 72 h, MTT (Fig 10D)
Experimental: All cell lines were purchased from the American Type Culture Collection (ATCC). The cell lines were growth at 37°C under 5% CO2 under humidified atmosphere. […] The cell lines L1210 (mouse lymphocytic leukemia cells), Raw (mouse macrophage), HeLa (human epithelial cervix cancer), U-2 OS (human osteosarcoma), MG63 (human osteosarcoma) and T47D (human breast cancer adenocarcinoma) were maintained in DMEM. HEK293 cells stably expressing the GH receptor (HEKGHR) were maintained in DMEM-F12 medium. The human breast cancer cell line SKBR3 was maintained in McCoy’s 5A medium. Cell culture medium was supplemented with 10% FBS, L-glutamine (2 mM) and PEST. In addition, the cell culture medium for T47D was supplemented with 1 mM NaPyr and 10 mM HEPES. Human peripheral blood mononuclear cells (PBMC) were isolated from heparin-anticoagulated blood of healthy volunteers by centrifugation with Ficoll-Paque Plus (Amersham Biosciences).
The mitochondrial metabolization of the tetrazolium salt 3-(4,5-methyltiazol-2yl-)-2,5diphenyl-tetrazolium bromide] (MTT) (Applichen, Germany) was used as indicator of cell viability. Optical density was measured at 595 nm with the iMark Microplate Reader (BioRad, CA, USA).

KBTI cells = assay: Viability of IM-resistant KBTI cells; format: cell-based; settings: IM-resistant KBTI human cells, data not shown
Experimental: as §1, §2

pYStat5 = assay: GM-CSF-induced pYStat5 in primary mouse macrophages; format: cell-based; settings: 3 μM CM363 for 0.5 h, data not shown
Stat5 response element = assay: Stat5 luciferase reporter gene assay in HEKGHR cells; format: cell-based; settings: 1 h pretreatment then GH 7 h
Experimental: The HEKGHR cell line was used to determine the effects of compounds on GH-regulated Stat5 transcriptional activity. HEKGHR cells were transfected with pSPI-GLE1-Luc (1 μg) overnight using Metafectene Pro® (Biontex, Germany). The β-galactosidase expression plasmid (0.05 μg) (Thermo Scientific, Illinois, USA) was used for controlling transfection efficiency. The stable reporter cell line HeLa/Stat3-luc (Panomics, Fremont, USA), was used to determine the effects of compounds on oncostatin M-regulated Stat3 transcriptional activity. Cells were seeded in a 6-well culture plate (Nunc, Denmark) and they were serum deprived (0.5% FBS) for 16 h. Then, cells were treated with vehicle (0.05% DMSO) or compound (0.1 to 10 μM) during 1 h before rhGH (50 nM) or oncostatin M (50 ng/ml) were added for 7 h for induction of Stat5- or Stat3-dependent transcriptional activities, respectively. Cells were lysed in Passive Lysis Buffer and luciferase activity was determined by the Luciferase Assay System (Thermo Scientific, Illinois, USA). Luciferase activity was measured using the microplate reader Fluoroskan Ascent FL (Labsystems). Results are expressed as relative luciferase units (RLU) per mg of protein content and β-galactosidase activity and normalized to those obtained for vehicle-treated control cells.

Stat3 response element = assay: Stat3 luciferase reporter gene assay in HeLa/Stat3-luc cells; format: cell-based; settings: 1 h pretreatment then IL6 7 h

Compound: N#Cc1ccc(C2C3=C(CCCC3=O)OC3=C2C(=O)c2ccccc2C3=O)cc1 (centres unmarked) [CM363, 4-(1,6,11-trioxo-2,3,4,6,11,12-hexahydro-1H-benzo[b]xanthen-12-yl)benzonitrile]
- IC50 (Raw cells): 0.1 ± 0.2 µM
- IC50 (NCTC cells): 1.1 ± 0.7 µM
- IC50 (HEL cells): 1.3 ± 0.3 µM
- IC50 (HL60 cells): 1.3 ± 0.6 µM
- IC50 (PC3 cells): 1.5 ± 1 µM
- IC50 (MCF7 cells): 1.7 ± 1.1 µM
- IC50 (L1210 cells): 3.4 ± 0.4 µM
- IC50 (PMBC): > 5 µM
- lowest concentration at which inhibition was detected (K562-R cells): 0.3 µM
- IC50 (K562-R cells; Homo sapiens, K-562R): ~0.6 µM
- sensitivity of KBTI cells (KBTI cells): partial resistance
- inhibition of GM-CSF-induced (10 min) pYStat5 (pYStat5): complete inhibition
- Stat5-dependent reporter gene (luciferase) activity (Stat5 response element): inhibit
- Stat3-dependent reporter gene (luciferase) activity (Stat3 response element): inhibit
